# Data from US9457008B2, “Joint product comprising synephrine and topiramate” (Institute of Pharmacology and Toxicology Academy of …, priority 2012, dated 2016).
# Experiment: Effects of different dissolution media on release rate of sustained-release pellet of topiramate
# Type: physicochemical
# Conditions: 0.1 mol/L HCl (pH1.2), 37° C.
# Description: In order to verify whether acidic, basic solvent media would influence the release rate of the sustained-release pellets of the present invention, 0.1 mol/L HCl (pH1.2) was prepared as artificial gastric fluid, […] phosphate buffer (pH6.8) was prepared as artificial intestinal fluid, and these media and water (500 ml) were used as release media, rotation speed was 100 rpm, 37° C. Samples (5 ml, supplemented with equivalent volume of media at the meantime) were taken at 1, 2, 4, 8, 12, 16, 20, 24 h, filtrated, and the subsequent filtrates were used as test solutions. High performance liquid chromatography (Appendix V D, Part II of Chinese Pharmacopoeia, 2010 Edition) was used, octylsilane-bonded silica gel was used as packing agent, 50% methanol was mobile phase, differential refractive detector was used, flow rate was 1.5 ml per minute. 200 μl of test solution was taken, injected in liquid chromatograph, the peak area of topiramate as main drug was recorded; topiramate was separately taken as control sample and measured by the same method, and accumulative release percentages of drug at different time points were calculated by external standard method. The release profile of sample of Batch 1 in Example 16 (2) in the above media were drawn, and the results were shown in FIG. 4.
smiles,measurement,value
"CC1(C)O[C@@H]2[C@@H](CO[C@@]3(COS(N)(=O)=O)OC(C)(C)O[C@@H]23)O1 [topiramate, 2,3,4,5-bis-O-(1-methylethylene)-β-D-fructopyranose sulfamate]",stability in pH1.2 artificial gastric fluid,unstable
